# Data: patent US20250049831A1, “ANTIVIRAL USE OF BISE[…], AND BISEPOXYLIGNAN COMPOSITION AND PREPARATION OF BISE[…]” (priority 2021, published 2025)
# Tested on: COVID-19 virus
# Test: In-vitro antiviral CPE test in Vero E6 cells, COVID-19 virus
# Format: cell-based
row,Compound,COVID-19 virus SI
1,COc1ccc([C@H]2OC[C@H]3[C@@H]2CO[C@H]3c2ccc(O[C@@H]3O[C@H](CO)[C@@H](O)[C@H](O)[C@H]3O)c(OC)c2)cc1OC [compound 2],30.50
2,COc1cc(O)cc(C2OCC3C(c4ccc(OC5OC(CO)C(O)C(O)C5O)c(OC)c4)OCC23)c1 (stereo not shown) [compound 1],31.61
3,COc1ccc(C2OCC3C(c4ccc(OC)c(OC)c4)OCC23)cc1O (stereo not shown) [compound 3],5.33
4,COc1ccc(C2OCC3C(c4ccc(OC(=O)C(C)c5ccc(CC(C)C)cc5)c(OC)c4)OCC23)cc1OC (stereo not shown) [compound 6],4.72
